From PubChem BioAssay (NCI) come the findings set out here.

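Grown in 96-well plates, cells were treated for 48 hours with each compound at five concentrations. Insufficient inhibition: endpoint recorded as highest concentration tested. Abbreviation: GI50, concentration required for 50% inhibition of growth. TGI: concentration producing complete growth inhibition.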 Some results are limits rather than exact numbers.

The first experiment concerns UACC-257 melanoma. As to the kind of experiment: NCI-60 cell line screen, 48 h.
Consider `COC1=CC(=O)C(C2CC(=O)c3c(O)cc(O)cc3O2)=CC1=O` (stereo not given), for which the TGI is 34.9 µM.

As to `COc1cc(/C=C/c2cc(O)c(C(C)=O)c(O)c2)cc2c1O[C@]1(C)CC[C@@H](O)C(C)(C)[C@H]1C2`, the GI50 is 11 µM and the TGI worked out at 72.7 µM.

In turn, `CC(C)C(C)/C=C\C(C)C1CCC2C3=CC=C4CC(O)CCC4(C)C3CCC21C` (stereo not given) had a TGI above 100 µM.

In the case of `Cc1cc2c(cc1Cl)SC(N(N(C)C)S(=O)(=O)c1ccc(Cl)cc1)=NS2(=O)=O`, the GI50 was 23.8 µM and the TGI worked out at 88.5 µM.

Turning to `Nc1ncnc2n[nH]c(Nc3ccc(F)cc3)c12`, the GI50 was 67.7 µM and the TGI is above 100 µM.

In the case of `OC(c1nc2ccccc2[nH]1)C(O)C(O)C(O)c1nc2ccccc2[nH]1` (stereo not given), the TGI is above 100 µM.

Compound `CCOC(=O)c1cc2nc3ccccc3c(=O)n2c2ccccc12` displayed a TGI above 10 µM.

In the case of `Cc1cc(O)c(/C=N/C(=S)NCc2ccccc2)c(=O)o1`, the TGI is above 100 µM.

As for `Cc1cc(I)cc(CN(C)CCCN2CCCCC2)c1O`, the GI50 was 16.4 µM and the TGI was determined as 31.9 µM.

`CC(C)(C)OC(=O)N[C@H]1CC2(C=C(Cl)C(=O)C(Cl)=C2)OC1=O` registered a TGI of 21.2 µM.

For `COc1cccc(-c2nc(-c3ccc(NC(=O)C(C)C)cc3)[nH]c2-c2ccnc(Br)c2)c1`, the GI50 was 4.02 µM and the TGI is above 100 µM.

In the case of `O=C(CSc1ccc(Cl)cc1)Nc1ccc(-c2nc3ccccc3s2)c(Cl)c1`, the GI50 was 15.7 µM and the TGI is above 100 µM.

Regarding `COc1cc2c3c(n(C)c(=O)c2cc1OC)-c1cc2c(cc1/C3=C\CCN)OCO2`, the GI50 is 1.03 µM and the TGI is 16.9 µM.

The test system of a further experiment is EKVX NSCLC. As to the kind of experiment: NCI-60 cell line screen, 48 h.
The compound `COC1=CC(=O)C(C2CC(=O)c3c(O)cc(O)cc3O2)=CC1=O` (stereo not given) had a TGI of 30.8 µM.

As for `COc1cc(/C=C/c2cc(O)c(C(C)=O)c(O)c2)cc2c1O[C@]1(C)CC[C@@H](O)C(C)(C)[C@H]1C2`, the GI50 is 13.1 µM and the TGI was determined as 72.9 µM.

As to `CC(C)C(C)/C=C\C(C)C1CCC2C3=CC=C4CC(O)CCC4(C)C3CCC21C` (stereo not given), the TGI was above 64.8 µM.

For `Cc1cc2c(cc1Cl)SC(N(N(C)C)S(=O)(=O)c1ccc(Cl)cc1)=NS2(=O)=O`, the GI50 is 26.6 µM and the TGI is 79.6 µM.

Take `Nc1ncnc2n[nH]c(Nc3ccc(F)cc3)c12`: the GI50 is 33.6 µM and the TGI was above 100 µM.

In turn, `OC(c1nc2ccccc2[nH]1)C(O)C(O)C(O)c1nc2ccccc2[nH]1` (stereo not given) had a TGI above 100 µM.

Consider `CCOC(=O)c1cc2nc3ccccc3c(=O)n2c2ccccc12`, for which the TGI is above 10 µM.

Regarding `Cc1cc(O)c(/C=N/C(=S)NCc2ccccc2)c(=O)o1`, the TGI is above 100 µM.

On to `Cc1cc(I)cc(CN(C)CCCN2CCCCC2)c1O`, for which the GI50 is 16.3 µM and the TGI was 37.3 µM.

On to `CC(C)(C)OC(=O)N[C@H]1CC2(C=C(Cl)C(=O)C(Cl)=C2)OC1=O`, for which the TGI was 40.9 µM.

In the case of `COc1cccc(-c2nc(-c3ccc(NC(=O)C(C)C)cc3)[nH]c2-c2ccnc(Br)c2)c1`, the GI50 is 2.43 µM and the TGI turned out to be 8.01 µM.

Regarding `O=C(CSc1ccc(Cl)cc1)Nc1ccc(-c2nc3ccccc3s2)c(Cl)c1`, the GI50 is 4.1 µM and the TGI was found to be 40.3 µM.

On to `COc1cc2c3c(n(C)c(=O)c2cc1OC)-c1cc2c(cc1/C3=C\CCN)OCO2`, for which the GI50 was 1.71 µM and the TGI came out at 13.5 µM.

In a further experiment the test system is SF-295 CNS. Nature of the experiment: NCI-60 cell line screen, 48 h.
As for `COC1=CC(=O)C(C2CC(=O)c3c(O)cc(O)cc3O2)=CC1=O` (stereo not given), the TGI was determined as 35.1 µM.

For `COc1cc(/C=C/c2cc(O)c(C(C)=O)c(O)c2)cc2c1O[C@]1(C)CC[C@@H](O)C(C)(C)[C@H]1C2`, the GI50 is 2.92 µM and the TGI worked out at 10.5 µM.

Regarding `CC(C)C(C)/C=C\C(C)C1CCC2C3=CC=C4CC(O)CCC4(C)C3CCC21C` (stereo not given), the TGI was above 100 µM.

Take `Cc1cc2c(cc1Cl)SC(N(N(C)C)S(=O)(=O)c1ccc(Cl)cc1)=NS2(=O)=O`: the GI50 was 30.3 µM and the TGI was above 100 µM.

In the case of `Nc1ncnc2n[nH]c(Nc3ccc(F)cc3)c12`, the GI50 was above 100 µM and the TGI was above 100 µM.

Regarding `OC(c1nc2ccccc2[nH]1)C(O)C(O)C(O)c1nc2ccccc2[nH]1` (stereo not given), the TGI was above 100 µM.

In the case of `CCOC(=O)c1cc2nc3ccccc3c(=O)n2c2ccccc12`, the TGI is above 10 µM.

Consider `Cc1cc(O)c(/C=N/C(=S)NCc2ccccc2)c(=O)o1`, for which the TGI is above 100 µM.

As to `Cc1cc(I)cc(CN(C)CCCN2CCCCC2)c1O`, the GI50 was 2.39 µM and the TGI amounted to 12.9 µM.

`CC(C)(C)OC(=O)N[C@H]1CC2(C=C(Cl)C(=O)C(Cl)=C2)OC1=O` yielded a TGI of 47.5 µM.

In the case of `COc1cccc(-c2nc(-c3ccc(NC(=O)C(C)C)cc3)[nH]c2-c2ccnc(Br)c2)c1`, the GI50 is 0.273 µM and the TGI is 0.759 µM.

With `O=C(CSc1ccc(Cl)cc1)Nc1ccc(-c2nc3ccccc3s2)c(Cl)c1`, the GI50 was 2 µM and the TGI is 5.42 µM.

In the case of `COc1cc2c3c(n(C)c(=O)c2cc1OC)-c1cc2c(cc1/C3=C\CCN)OCO2`, the GI50 was below 0.0239 µM and the TGI is 8.84 µM.

A further experiment has as its system HCT-116 colon. As to the kind of experiment: NCI-60 cell line screen, 48 h.
Turning to `COC1=CC(=O)C(C2CC(=O)c3c(O)cc(O)cc3O2)=CC1=O` (stereo not given), the TGI turned out to be 32.9 µM.

In the case of `COc1cc(/C=C/c2cc(O)c(C(C)=O)c(O)c2)cc2c1O[C@]1(C)CC[C@@H](O)C(C)(C)[C@H]1C2`, the GI50 was 4.56 µM and the TGI is 22 µM.

`CC(C)C(C)/C=C\C(C)C1CCC2C3=CC=C4CC(O)CCC4(C)C3CCC21C` (stereo not given) registered a TGI above 57.2 µM.

For the compound `Cc1cc2c(cc1Cl)SC(N(N(C)C)S(=O)(=O)c1ccc(Cl)cc1)=NS2(=O)=O`, the GI50 was 23.6 µM and the TGI stood at 71.1 µM.

For `Nc1ncnc2n[nH]c(Nc3ccc(F)cc3)c12`, the GI50 is 12.3 µM and the TGI was 31.9 µM.

In turn, `OC(c1nc2ccccc2[nH]1)C(O)C(O)C(O)c1nc2ccccc2[nH]1` (stereo not given) had a TGI above 100 µM.

As to `CCOC(=O)c1cc2nc3ccccc3c(=O)n2c2ccccc12`, the TGI was above 10 µM.

For the compound `Cc1cc(O)c(/C=N/C(=S)NCc2ccccc2)c(=O)o1`, the TGI was above 100 µM.

Turning to `Cc1cc(I)cc(CN(C)CCCN2CCCCC2)c1O`, the GI50 is 9.24 µM and the TGI is 21.3 µM.

`CC(C)(C)OC(=O)N[C@H]1CC2(C=C(Cl)C(=O)C(Cl)=C2)OC1=O` gave a TGI of 28 µM.

Turning to `COc1cccc(-c2nc(-c3ccc(NC(=O)C(C)C)cc3)[nH]c2-c2ccnc(Br)c2)c1`, the GI50 was 2.49 µM and the TGI worked out at 7.8 µM.

Turning to `O=C(CSc1ccc(Cl)cc1)Nc1ccc(-c2nc3ccccc3s2)c(Cl)c1`, the GI50 is 2.08 µM and the TGI was 5.45 µM.

`COc1cc2c3c(n(C)c(=O)c2cc1OC)-c1cc2c(cc1/C3=C\CCN)OCO2`: the GI50 is below 0.024 µM and the TGI turned out to be 0.348 µM.

A further experiment deals with TK-10 renal. As to the kind of experiment: NCI-60 cell line screen, 48 h.
Consider `COC1=CC(=O)C(C2CC(=O)c3c(O)cc(O)cc3O2)=CC1=O` (stereo not given), for which the TGI is 31.8 µM.

Regarding `COc1cc(/C=C/c2cc(O)c(C(C)=O)c(O)c2)cc2c1O[C@]1(C)CC[C@@H](O)C(C)(C)[C@H]1C2`, the GI50 was 22.2 µM and the TGI is above 100 µM.

In turn, `CC(C)C(C)/C=C\C(C)C1CCC2C3=CC=C4CC(O)CCC4(C)C3CCC21C` (stereo not given) showed a TGI above 100 µM.

With `Cc1cc2c(cc1Cl)SC(N(N(C)C)S(=O)(=O)c1ccc(Cl)cc1)=NS2(=O)=O`, the GI50 is 43.9 µM and the TGI is above 100 µM.

`Nc1ncnc2n[nH]c(Nc3ccc(F)cc3)c12`: the GI50 was 25.4 µM and the TGI is above 100 µM.

`OC(c1nc2ccccc2[nH]1)C(O)C(O)C(O)c1nc2ccccc2[nH]1` (stereo not given) had a TGI above 100 µM.

`CCOC(=O)c1cc2nc3ccccc3c(=O)n2c2ccccc12` returned a TGI above 10 µM.

The compound `Cc1cc(O)c(/C=N/C(=S)NCc2ccccc2)c(=O)o1` registered a TGI above 100 µM.

On to `Cc1cc(I)cc(CN(C)CCCN2CCCCC2)c1O`, for which the GI50 is 19.8 µM and the TGI is 37.7 µM.

Take `CC(C)(C)OC(=O)N[C@H]1CC2(C=C(Cl)C(=O)C(Cl)=C2)OC1=O`: the TGI was 33.8 µM.

Regarding `COc1cccc(-c2nc(-c3ccc(NC(=O)C(C)C)cc3)[nH]c2-c2ccnc(Br)c2)c1`, the GI50 is 4.35 µM and the TGI is above 100 µM.

As for `O=C(CSc1ccc(Cl)cc1)Nc1ccc(-c2nc3ccccc3s2)c(Cl)c1`, the GI50 was 5.3 µM and the TGI was 40 µM.

For `COc1cc2c3c(n(C)c(=O)c2cc1OC)-c1cc2c(cc1/C3=C\CCN)OCO2`, the GI50 is 1.17 µM and the TGI stood at 6.72 µM.
